ChEMBL document CHEMBL3044741, “Synthesis of novel biologically active methylene derivatives of sydnones” (Med Chem Res, 2013)
Converted amounts (≈) assume the structure as drawn.

Assays:
[1] = Selectivity index, ratio of CC50 for human MT4 cells to IC50 for HIV1 3B; type: functional
[2] = Cytotoxicity against human MT4 cells by MTT assay; type: cell-based
[3] = Selectivity index, ratio of CC50 for human MT4 cells to IC50 for HIV2 ROD; type: functional
[4] = tested on: Human immunodeficiency virus 2; assay: Antiviral activity against HIV2 ROD infected in MT4 cells assessed as inhibition of virus-induced cytopathogenicity by MTT assay; type: functional, organism-based; settings: Human immunodeficiency virus 2, ISOLATE ROD
[5] = tested on: Human immunodeficiency virus 1; assay: Antiviral activity against HIV1 3B infected in MT4 cells assessed as inhibition of virus-induced cytopathogenicity by MTT assay; type: functional, organism-based; settings: Human immunodeficiency virus 1, 3B
[6] = Cytotoxicity against human HEL cells assessed as alteration in cell morphology; type: cell-based
Human alphaherpesvirus 3 [7] = assay: Antiviral activity against Varicella-zoster virus Oka expressing thymidine kinase infected in HEL cells assessed as reduction in plaque formation; type: functional, organism-based; settings: Human alphaherpesvirus 3, strain Oka vaccine
[8] = Cytotoxicity against human HEL cells; type: cell-based
Cytomegalovirus [9] = assay: Antiviral activity against Cytomegalovirus AD-169 infected in HEL cells assessed as reduction in plaque formation; type: functional, organism-based; settings: Human betaherpesvirus 5, AD-169, HEL
Cytomegalovirus [10] = assay: Antiviral activity against Cytomegalovirus Davis in HEL cells assessed as reduction in plaque formation; type: functional, organism-based; settings: Human betaherpesvirus 5, Davis
Human alphaherpesvirus 3 [11] = assay: Antiviral activity against thymidine kinase-deficient Varicella-zoster virus infected in HEL cells assessed as reduction in plaque formation; type: functional, organism-based; settings: Human alphaherpesvirus 3, HEL
Pseudomonas aeruginosa [12] = assay: Antibacterial activity against Pseudomonas aeruginosa MTCC 424 after 24 hrs by broth dilution method; type: functional; settings: MTCC 424, 24 h
Escherichia coli [13] = assay: Antibacterial activity against Escherichia coli MTCC 443 after 24 hrs by broth dilution method; type: functional; settings: MTCC 443, 24 h
Staphylococcus aureus [14] = assay: Antibacterial activity against Staphylococcus aureus MTCC 96 after 24 hrs by broth dilution method; type: functional; settings: MTCC 96, 24 h
Aspergillus niger [15] = assay: Antifungal activity against Aspergillus niger MTCC 282 at 250 ug/ml after 74 hrs by Kirby-Bauer method; type: functional; settings: MTCC 282, 74 h, read-out: IZ
Candida albicans [16] = assay: Antifungal activity against Candida albicans MTCC 227 at 250 ug/ml after 74 hrs by Kirby-Bauer method; type: functional; settings: MTCC 227, 74 h, read-out: IZ
Candida albicans [17] = assay: Antifungal activity against Candida albicans MTCC 227; type: functional
Aspergillus niger [18] = assay: Antifungal activity against Aspergillus niger MTCC 282; type: functional
Aspergillus clavatus [19] = assay: Antifungal activity against Aspergillus clavatus MTCC 1323 at 250 ug/ml after 74 hrs by Kirby-Bauer method; type: functional
Streptococcus pyogenes [20] = assay: Antibacterial activity against Streptococcus pyogenes MTCC 442 at 250 ug/ml after 24 hrs by Kirby-Bauer method; type: functional; settings: MTCC 442, 24 h, read-out: IZ
Staphylococcus aureus [21] = assay: Antibacterial activity against Staphylococcus aureus MTCC 96 at 250 ug/ml after 24 hrs by Kirby-Bauer method; type: functional; settings: MTCC 96, 24 h, read-out: IZ
Aspergillus clavatus [22] = assay: Antifungal activity against Aspergillus clavatus MTCC 1323; type: functional
Pseudomonas aeruginosa [23] = assay: Antibacterial activity against Pseudomonas aeruginosa MTCC 424 at 250 ug/ml after 24 hrs by Kirby-Bauer method; type: functional; settings: MTCC 424, 24 h, read-out: IZ
Streptococcus pyogenes [24] = assay: Antibacterial activity against Streptococcus pyogenes MTCC 442 after 24 hrs by broth dilution method; type: functional; settings: MTCC 442, 24 h
Escherichia coli [25] = assay: Antibacterial activity against Escherichia coli MTCC 443 at 250 ug/ml after 24 hrs by Kirby-Bauer method; type: functional; settings: MTCC 443, 24 h, read-out: IZ

O=c1[nH]cnc2c1ncn2[C@H]1CC[C@@H](CO)O1 [DIDANOSINE]
Ratio CC50/IC50 [1]: >24 | CC50 [2]: > 50 µg/mL | Ratio CC50/IC50 [3]: >13 | IC50 [4]: 3.78 µg/mL (≈ 16 µM) | IC50 [5]: 2.09 µg/mL (≈ 8.85 µM)

[O-]c1c[n+](-c2ccc(Cc3ccc(-[n+]4cc([O-])on4)cc3)cc2)no1
MCC [6]: ≥ 20 µg/mL | EC50 (Human alphaherpesvirus 3 [7]): > 4 µg/mL | CC50 [8]: 33.3 µg/mL (≈ 99 µM) | EC50 (Cytomegalovirus [9]): > 4 µg/mL | EC50 (Cytomegalovirus [10]): > 20 µg/mL | EC50 (Human alphaherpesvirus 3 [11]): > 4 µg/mL

Cc1ccnc2c1NC(=O)c1cccnc1N2C1CC1 [NEVIRAPINE]
Ratio CC50/IC50 [1]: >80 | CC50 [2]: > 4 µg/mL | Ratio CC50/IC50 [3]: <1 | IC50 [4]: > 4 µg/mL | IC50 [5]: 0.05 µg/mL (≈ 0.188 µM)

CN1CCN(Cc2c([O-])on[n+]2-c2ccc(Cc3ccc(-[n+]4noc([O-])c4CN4CCN(C)CC4)cc3)cc2)CC1
MIC (Pseudomonas aeruginosa [12]): 250 µg/mL (≈ 446 µM) | MIC (Escherichia coli [13]): 250 µg/mL (≈ 446 µM) | MIC (Staphylococcus aureus [14]): 500 µg/mL (≈ 892 µM) | zone of inhibition at 250 µg/mL (Aspergillus niger [15]): 20 mm | zone of inhibition at 250 µg/mL (Candida albicans [16]): 19 mm | MIC (Candida albicans [17]): 500 µg/mL (≈ 892 µM) | MIC (Aspergillus niger [18]): 1000 µg/mL (≈ 1780 µM) | zone of inhibition at 250 µg/mL (Aspergillus clavatus [19]; MTCC 1323, 74 h, read-out: IZ): 23 mm | zone of inhibition at 250 µg/mL (Streptococcus pyogenes [20]): 22 mm | zone of inhibition at 250 µg/mL (Staphylococcus aureus [21]): 16 mm | MIC (Aspergillus clavatus [22]): 500 µg/mL (≈ 892 µM) | zone of inhibition at 250 µg/mL (Pseudomonas aeruginosa [23]): 19 mm | MIC (Streptococcus pyogenes [24]): 62.5 µg/mL (≈ 111 µM) | zone of inhibition at 250 µg/mL (Escherichia coli [25]): 19 mm

CC1(C)S[C@@H]2[C@H](NC(=O)[C@H](N)c3ccccc3)C(=O)N2[C@H]1C(=O)O [AMPICILLIN]
MIC (Pseudomonas aeruginosa [12]): 100 µg/mL (≈ 286 µM) | MIC (Escherichia coli [13]): 100 µg/mL (≈ 286 µM) | MIC (Staphylococcus aureus [14]): 250 µg/mL (≈ 715 µM) | zone of inhibition at 250 µg/mL (Streptococcus pyogenes [20]): 19 mm | zone of inhibition at 250 µg/mL (Staphylococcus aureus [21]): 18 mm | zone of inhibition at 250 µg/mL (Pseudomonas aeruginosa [23]): 20 mm | MIC (Streptococcus pyogenes [24]): 100 µg/mL (≈ 286 µM) | zone of inhibition at 250 µg/mL (Escherichia coli [25]): 20 mm

Cc1cn([C@H]2C[C@H](N=[N+]=[N-])[C@@H](CO)O2)c(=O)[nH]c1=O [ZIDOVUDINE]
Ratio CC50/IC50 [1]: >11587 | CC50 [2]: > 25 µg/mL | Ratio CC50/IC50 [3]: >26731 | IC50 [4]: 0.00094 µg/mL (≈ 0.00352 µM) | IC50 [5]: 0.0022 µg/mL (≈ 0.00823 µM)

O=C(N[C@H](CO)[C@H](O)c1ccc([N+](=O)[O-])cc1)C(Cl)Cl [CHLORAMPHENICOL]
MIC (Pseudomonas aeruginosa [12]): 50 µg/mL (≈ 155 µM) | MIC (Escherichia coli [13]): 50 µg/mL (≈ 155 µM) | MIC (Staphylococcus aureus [14]): 50 µg/mL (≈ 155 µM) | zone of inhibition at 250 µg/mL (Streptococcus pyogenes [20]): 20 mm | zone of inhibition at 250 µg/mL (Staphylococcus aureus [21]): 21 mm | zone of inhibition at 250 µg/mL (Pseudomonas aeruginosa [23]): 21 mm | MIC (Streptococcus pyogenes [24]): 50 µg/mL (≈ 155 µM) | zone of inhibition at 250 µg/mL (Escherichia coli [25]): 23 mm

Nc1ccn([C@H]2CC[C@@H](CO)O2)c(=O)n1 [ZALCITABINE]
Ratio CC50/IC50 [1]: >127 | CC50 [2]: > 20 µg/mL | Ratio CC50/IC50 [3]: >108 | IC50 [4]: 0.19 µg/mL (≈ 0.9 µM) | IC50 [5]: 0.16 µg/mL (≈ 0.758 µM)

NYSTATIN
MIC (Candida albicans [17]): 100 µg/mL | MIC (Aspergillus niger [18]): 100 µg/mL | inhibition zone (IZ) (Aspergillus clavatus [19]): 26 mm | MIC (Aspergillus clavatus [22]): 100 µg/mL

Cc1ccc(-[n+]2noc([O-])c2CN2CCN(CCOCCO)CC2)cc1
MIC (Pseudomonas aeruginosa [12]): 250 µg/mL (≈ 690 µM) | MIC (Escherichia coli [13]): 500 µg/mL (≈ 1380 µM) | MIC (Staphylococcus aureus [14]): 200 µg/mL (≈ 552 µM) | zone of inhibition at 250 µg/mL (Streptococcus pyogenes [20]): 16 mm | zone of inhibition at 250 µg/mL (Staphylococcus aureus [21]): 19 mm | zone of inhibition at 250 µg/mL (Pseudomonas aeruginosa [23]): 21 mm | MIC (Streptococcus pyogenes [24]): 500 µg/mL (≈ 1380 µM) | zone of inhibition at 250 µg/mL (Escherichia coli [25]): 16 mm
